Measured values as given in US11759433B2, “Compositions and methods for regulating the endocannabinoid system” (Sytheon Ltd, priority 2019, dated 2023).
Read-outs that look alike come from different tables or passages of the source.

Legend:
[1] = biological target: T1, Monoacyl Glycerol Lipase (MAGL) (Homo sapiens, UniProt Q99685); experiment: Monoacyl Glycerol Lipase (MAGL) inhibitory activity; assay type: biochemical
T1 construct: purchased Cayman 10007812
T1 sequence (Q99685 1-303): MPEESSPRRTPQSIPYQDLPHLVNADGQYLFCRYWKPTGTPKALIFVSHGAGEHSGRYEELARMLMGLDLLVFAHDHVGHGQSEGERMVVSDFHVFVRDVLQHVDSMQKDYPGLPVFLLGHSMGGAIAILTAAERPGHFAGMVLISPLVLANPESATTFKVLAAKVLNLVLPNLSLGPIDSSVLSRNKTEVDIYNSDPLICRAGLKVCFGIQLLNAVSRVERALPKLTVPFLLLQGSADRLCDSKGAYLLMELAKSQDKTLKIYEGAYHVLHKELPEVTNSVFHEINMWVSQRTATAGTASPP
Procedure: A 0.1 gram of sample of each of the indicated Test Samples identified in Table 3 was dissolved in 1 mL DMSO to make stock solution. […] Final concentration in well: 10 μL of sample, 5.6 mU MAGL (Cayman cat. #10007812), and 23.6 μM 2Arachidonoyl Glycerol (Cayman cat. #62160). This study was done by following the protocol described by J L Blankman et al. (Blankmann et., A comprehensive profile of brain enzymes that hydrolyze the endocannabinoid 2-Arachidonyl glycerol, Chem & Biol, 14(12); 1347-1356, 2007).

[2] = test system: IL-8; experiment: IL-8 output in RHE-conditioned medium (sandwich ELISA); assay type: cell-based, Human; details: for IL-8 (% Control): 2 mg/cm^2 on RHE; for Effect on level of IL-8, in words: tissue culture conditioned medium
Procedure: (§1) A series of tests were conducted to assess the impact of the compositions according to the present teaching on the stress biomarkers cortisol and interleukin-8 8). The compounds and compositions to be evaluated were stored at room temperature prior to use and, for use, were solubilized in caprylic acid/caprylic triglycerides. The tests were conducted using reconstituted human epithelium-conditioned medium. Reconstituted Human Epidermis tissues were obtained from Zen-Bio (Research Triangle, NC; order #51500) and were stored o/n at 4° C. The following day the tissues were transferred to 6 well plates and allowed to equilibrate for 4 h in the medium provided by the manufacturer (ZenSkin RHE Assay Medium, lot #031620). Thereafter the medium was change with fresh medium and the Test Materials, as identified in Table 4, applied to the tissue samples in an amount of 2 mg/cm^2 with a positive displacement pipette and spread evenly on top of the tissues. The solvent was used as the negative control.
IL-8—Similarly, interleukin-8 (IL-8) output in the cell culture conditioned medium was measured by sandwich ELISA using antibody pair from Invitrogen (ThermoFisher, kit cat. #CHC1303) and antibody pair from BioLegend (cat. #501101 and #501201), respectively. All colorimetric measurements were performed using Molecular Devices microplate reader MAX190 and SoftMax3.1.2PRO software.
(§2) In both studies the statistical significance was assessed with two-tail Student test. Deviations of ≥15% as compared to water control with p values below 0.05 were considered statistically significant.

[3] = biological target: T2, Fatty Acid Amide Hydrolase (FAAH) (Homo sapiens, UniProt O00519); experiment: FAAH inhibitor screening assay (Cayman kit); assay type: biochemical
T2 construct: purchased Cayman 10005196
T2 sequence (O00519 1-579): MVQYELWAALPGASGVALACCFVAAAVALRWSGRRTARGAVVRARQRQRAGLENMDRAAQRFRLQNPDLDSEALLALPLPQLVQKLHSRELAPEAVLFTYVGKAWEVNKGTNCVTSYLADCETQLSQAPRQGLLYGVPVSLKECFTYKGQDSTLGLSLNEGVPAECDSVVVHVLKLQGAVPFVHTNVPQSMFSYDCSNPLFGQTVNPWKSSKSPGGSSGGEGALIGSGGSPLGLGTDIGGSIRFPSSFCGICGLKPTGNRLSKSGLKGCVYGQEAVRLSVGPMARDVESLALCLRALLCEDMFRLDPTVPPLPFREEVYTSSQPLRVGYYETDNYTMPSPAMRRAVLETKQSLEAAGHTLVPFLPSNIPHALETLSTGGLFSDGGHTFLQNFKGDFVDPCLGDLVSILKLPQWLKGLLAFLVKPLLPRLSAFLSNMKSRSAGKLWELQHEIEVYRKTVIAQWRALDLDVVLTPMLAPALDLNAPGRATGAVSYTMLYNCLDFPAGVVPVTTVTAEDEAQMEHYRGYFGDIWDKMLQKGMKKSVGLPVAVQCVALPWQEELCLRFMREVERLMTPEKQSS
Procedure: A 0.01 gram of sample of each of the indicated Test Samples identified in Table 3 was dissolved in 1 mL DMSO to make stock solution. […] The analysis was done following FAAH inhibitor screening assay kit (Cayman cat #10005196) protocol.

[4] = biological target: T3, Fatty Acid Binding Protein 5 (FABP5) (Homo sapiens, UniProt Q01469); experiment: Fatty Acid Binding Protein 5 inhibitory activity (FABP-5 ELISA kit)
T3 construct: purchased Raybiotech 268-10276-1
T3 sequence (Q01469 whole entry): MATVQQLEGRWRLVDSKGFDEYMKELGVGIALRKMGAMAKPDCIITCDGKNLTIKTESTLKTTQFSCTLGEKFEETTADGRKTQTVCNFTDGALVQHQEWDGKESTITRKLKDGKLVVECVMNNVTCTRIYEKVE
Procedure: 0.1 gram of sample of each of the indicated Test Samples identified in Table 3 was dissolved in 1 mL DMSO and diluted with Diluent C from the FABP-5 ELISA Kit (Raybiotech #ELH-FABP5) to a make stock solution of 800 μg/ml. […] 50 μl of sample and 50 μl of 200 ng/ml of FABP-5 (Raybiotech #268-10276-1) was added per well for the analysis. The analysis was done following protocol of the aforementioned kit.

[5] = test system: Cortisol; experiment: Cortisol output in RHE-conditioned medium; assay type: cell-based, Human; details: for Cortisol (% Control): 2 mg/cm^2 on RHE; for Cortisol (% Control) / Cortisol std MTT (% Control): 48 h; for Cortisol std MTT (% Control): standardised to MTT tissue viability
Procedure: as §1
Cortisol—After 48 h of incubation, the cortisol output in the cell culture conditioned medium was measured with the Cortisol Parameter Assay Kit from RnD (Minneapolis, MN cat. #KGE008B), while tissue viability was assessed by the MTT technique, using the manufacturer's protocol and reagents.
as §2

[6] = read-out: MAGL IC50 (converted)
[7] = read-out: FAAH IC50 (converted)

| IC50 [1, 6] [µM] | IC50 [3, 7] [µM] | IC50 [4] [µM] | Structure (SMILES) | IL-8 (% Control) ([2]; 0.1%) | IL-8 (% Control) ([2]; 0.25%) | IL-8 (% Control) ([2]; 0.5%) | Effect on level of IL-8, in words [2] | Cortisol (% Control) ([5]; 0.1%) | Cortisol std MTT (% Control) ([5]; 0.1%) | Cortisol (% Control) ([5]; 0.25%) | Cortisol std MTT (% Control) ([5]; 0.25%) | Cortisol (% Control) ([5]; 0.5%) | Cortisol std MTT (% Control) ([5]; 0.5%) | IC50 [1] [µM] | IL-8 (% Control) ([2]; 1%) | IC50 ([3]; FAAH IC50) [µM] | Cortisol (% Control) ([5]; 1%) | Cortisol std MTT (% Control) ([5]; 1%) | Effect on level of cortisol, in words ([5]; higher levels) | Effect on level of cortisol, in words ([5]; low levels) |
| --- | --- | --- | --- | --- | --- | --- | --- | --- | --- | --- | --- | --- | --- | --- | --- | --- | --- | --- | --- | --- |
| 183 | 6.71 | 449 | C=C[C@@](C)(/C=C/c1ccc(O)cc1)CCC=C(C)C [Bakuchiol] | 92 | 92 | 86 | marginal effect in reducing | 51 | 56 | 64 | 87 | 54 | 79 |  |  |  |  |  |  |  |
|  |  |  | C=C(C)[C@@H]1CCC(C)=C[C@H]1c1c(O)cc(CCCCC)cc1O [Cannabidiol 99, Cannabidiol] | 103 |  | 107 | no effect or marginally increased | 72 | 82 |  |  | 84 | 95 | 13100 | 108 | 99.5 | 134 | 174 | increased the cortisol level | modest decrease in cortisol |
|  | 3.6 |  | CCCCC/C=C\C/C=C\CCCCCCCC(=O)OCC [Ethyl Linoleate 98, Ethyl linoleate] |  |  |  |  |  |  |  |  |  |  |  |  |  |  |  |  |  |
| 7710 | 9.81 | 1490 | CCCCC/C=C\C/C=C\CCCCCCCC(=O)OCC [Ethyl Linoleate (Synovea ® EL), Ethyl linoleate] |  |  |  |  |  |  |  |  |  |  |  |  |  |  |  |  |  |
